Reference: US20100291086A1, “USE OF ESTROGEN AND ANDROGEN BINDING PROTEINS IN METHODS AND COMPOSITIONS FOR TREATING GYNAECOLOGICAL CANCERS” (priority 2007, published 2010)

What was measured:
breast cancer = details: adjuvant tamoxifen for about 5 years, women with cancers expressing the estrogen receptor; cited from earlier work
LNCaP cells = test: In vitro growth proliferation study, calcein uptake assay; format: cell-based, human; details: nilutamide 0.1 μM, 120 hours
Protocol: The effects of the polypeptide on the growth and proliferation of the cells was then assessed. […] In addition, LNCaP cells were also cultured in the presence of the non-steroidal antiandrogen nilutamide The human prostate cancer cell line, LNCaP was obtained from American Type Tissue Collection (ATCC) and was routinely cultured in growth medium containing phenol red RPMI 1640 (Invitrogen, Auckland, New Zealand) supplemented with 10% fetal bovine serum (FBS, GIBCO) and 1% antibiotic/antimycotic mixture (Invitrogen, Auckland, New Zealand). Cells were maintained at 37° C. in 5% CO2. […] In addition as control, 6 wells were treated with the nonsteroidal antiandrogen nilutamide (0.1 μM) as well as 6 wells with 10% charcoal stripped serum, to simulate steroid free conditions. After 120 hours in culture, cells were washed once with PBS and labelled with calcein ([…], Molecular Probes, Oregon, USA) at 1 mM final concentration in PBS. Calcein positive cells were detected using a FLUOstar OPTIMA plate reader (BMG Labtech, Victoria, Australia). Experiments were performed in 6 replicates for each treatment condition. Data are presented as mean±SEM unless otherwise indicated.

invasive breast cancer = details: women; cited from earlier work
[1] = women, same study; cited from earlier work

## CC/C(=C(\c1ccccc1)c1ccc(OCCN(C)C)cc1)c1ccccc1 [tamoxifen]
Breast cancer
  reduction of annual breast cancer death rate: 31%

## CC1(C)NC(=O)N(c2ccc([N+](=O)[O-])c(C(F)(F)F)c2)C1=O [nilutamide]
LNCaP cells
  reduction of prostate cancer cell proliferation: 80%

## O=C(c1ccc(OCCN2CCCCC2)cc1)c1c(-c2ccc(O)cc2)sc2cc(O)ccc12 [Raloxifene]
Invasive breast cancer
  reduction of risk of invasive breast cancer: 44%
[1]
  increase of risk of fatal stroke: 49%
